Here are results for one compound from ChEMBL document CHEMBL4184317, “Discovery of Tetrahydroquinoxalines as Bromodomain and Extra-Terminal Domain (BET) Inhibitors with Selectivity for the Second Bromodomain” (J Med Chem, 2018).

As usually defined, the Kd is the equilibrium constant for the complex coming apart.

For experiment [1], the target named is T1, Bromodomain-containing protein 2 (Homo sapiens, UniProt P25440). As to the kind of experiment: Inhibition of human BRD2 BD1 after 30 mins by TR-FRET assay. In general terms: Time-resolved FRET reads energy transfer from a long-lived donor to a nearby acceptor.
In experiment [2] the target is T1, Bromodomain-containing protein 2. As to the kind of experiment: Inhibition of human BRD2 BD2 after 30 mins by TR-FRET assay.
The target in experiment [3] is T2, Bromodomain-containing protein 3 (Homo sapiens, UniProt Q15059). As to the kind of experiment: Inhibition of BRD3 BD1 (unknown origin) after 30 mins by TR-FRET assay.
In experiment [4] the target is T3, Bromodomain testis-specific protein (Homo sapiens, UniProt Q58F21). As to the kind of experiment: Inhibition of BRDT BD1 (unknown origin) after 30 mins by TR-FRET assay.
The next experiment addresses T4, Peregrin (Homo sapiens, UniProt P55201).
T4 sequence (P55201 whole entry): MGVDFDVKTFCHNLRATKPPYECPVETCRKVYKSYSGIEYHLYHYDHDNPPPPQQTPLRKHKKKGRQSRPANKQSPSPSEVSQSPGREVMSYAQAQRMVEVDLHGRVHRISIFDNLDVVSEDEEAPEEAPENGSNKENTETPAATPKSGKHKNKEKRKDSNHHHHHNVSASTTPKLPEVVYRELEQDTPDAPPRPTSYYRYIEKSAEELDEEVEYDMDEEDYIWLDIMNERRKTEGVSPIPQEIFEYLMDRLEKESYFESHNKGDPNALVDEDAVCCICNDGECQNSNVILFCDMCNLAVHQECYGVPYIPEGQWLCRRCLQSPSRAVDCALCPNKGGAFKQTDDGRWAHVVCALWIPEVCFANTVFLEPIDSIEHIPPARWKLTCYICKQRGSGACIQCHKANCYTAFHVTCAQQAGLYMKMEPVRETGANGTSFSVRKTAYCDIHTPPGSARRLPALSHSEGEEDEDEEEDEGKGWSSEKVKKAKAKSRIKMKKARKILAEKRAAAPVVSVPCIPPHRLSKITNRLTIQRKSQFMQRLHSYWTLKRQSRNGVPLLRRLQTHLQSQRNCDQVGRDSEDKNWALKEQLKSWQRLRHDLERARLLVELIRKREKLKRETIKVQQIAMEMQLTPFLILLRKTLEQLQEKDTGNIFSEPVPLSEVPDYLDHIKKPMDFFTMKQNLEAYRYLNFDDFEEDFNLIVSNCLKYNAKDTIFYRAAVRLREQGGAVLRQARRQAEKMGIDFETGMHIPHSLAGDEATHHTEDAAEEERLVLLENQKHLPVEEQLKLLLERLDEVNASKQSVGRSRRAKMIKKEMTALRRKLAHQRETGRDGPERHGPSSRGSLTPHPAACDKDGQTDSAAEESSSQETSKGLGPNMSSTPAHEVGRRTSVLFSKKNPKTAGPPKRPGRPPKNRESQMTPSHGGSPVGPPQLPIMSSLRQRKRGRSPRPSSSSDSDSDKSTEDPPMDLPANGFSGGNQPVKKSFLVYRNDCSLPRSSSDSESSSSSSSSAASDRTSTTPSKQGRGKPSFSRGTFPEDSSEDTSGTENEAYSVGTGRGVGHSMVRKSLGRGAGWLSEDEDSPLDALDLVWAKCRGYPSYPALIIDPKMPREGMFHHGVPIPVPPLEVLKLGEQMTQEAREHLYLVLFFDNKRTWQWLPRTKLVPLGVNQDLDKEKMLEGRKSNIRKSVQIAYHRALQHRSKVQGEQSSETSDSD
The experiment can be described thus: Displacement of Alexa 647 ligand from 6H-Flag-Tev-BRPF1 (622 to 738 residues) (unknown origin) expressed in Escherichia coli BL21 (DE3) cells after 30 mins by TR-FRET assay.

Experiment [5] addresses Bromodomain-containing protein 4 (Homo sapiens, UniProt O60885). The experiment can be described thus: Binding affinity to human partial length DNA-tagged BRD4 isoform long BD2 expressed in bacterial by BROMOscan method.
Experiment [6] concerns the target T2, Bromodomain-containing protein 3. The experiment can be described thus: Binding affinity to human partial length DNA-tagged BRD3 BD2 expressed in bacterial by BROMOscan method.
The target of experiment [7] is Transcription initiation factor TFIID subunit 1 (Homo sapiens, UniProt P21675). As to the kind of experiment: Binding affinity to human partial length DNA-tagged TAF1 BD2 expressed in bacterial by BROMOscan method.
The target in experiment [8] is Bromodomain and WD repeat-containing protein 1 (Homo sapiens, UniProt Q9NSI6). As to the kind of experiment: Binding affinity to human partial length DNA-tagged […] BD2 expressed in bacterial by BROMOscan method.
Experiment [9] addresses Bromodomain-containing protein 1 (Homo sapiens, UniProt O95696). As to the kind of experiment: Binding affinity to human partial length DNA-tagged BRD1 expressed in bacterial by BROMOscan method.
Experiment [10] has as its target Bromodomain-containing protein 7 (Homo sapiens, UniProt Q9NPI1). As to the kind of experiment: Binding affinity to human partial length DNA-tagged BRD7 expressed in mammalian expression system by BROMOscan method.
The target of experiment [11] is Bromodomain-containing protein 9 (Homo sapiens, UniProt Q9H8M2). As to the kind of experiment: Binding affinity to human partial length DNA-tagged BRD9 isoform 1 expressed in bacteria by BROMOscan method.
The target of experiment [12] is Bromodomain and PHD finger-containing protein 3 (Homo sapiens, UniProt Q9ULD4). The experiment can be described thus: Binding affinity to human partial length DNA-tagged BRPF3 expressed in bacteria by BROMOscan method.
The target in experiment [13] is Chromatin remodeling regulator CECR2 (Homo sapiens, UniProt Q9BXF3). The experiment can be described thus: Binding affinity to human partial length DNA-tagged CECR2 expressed in bacteria by BROMOscan method.
The next experiment deals with CREB-binding protein (Homo sapiens, UniProt Q92793). As to the kind of experiment: Binding affinity to human partial length DNA-tagged CREBBP expressed in bacteria by BROMOscan method.
In experiment [14] the target is Histone acetyltransferase p300 (Homo sapiens, UniProt Q09472). As to the kind of experiment: Binding affinity to human partial length DNA-tagged EP300 expressed in bacteria by BROMOscan method.
For experiment [15], the target named is Nucleosome-remodeling factor subunit BPTF (Homo sapiens, UniProt Q12830). The experiment can be described thus: Binding affinity to human partial length DNA-tagged FALZ isoform1 expressed in bacteria by BROMOscan method.
Experiment [16] has as its target Histone acetyltransferase KAT2A (Homo sapiens, UniProt Q92830). The experiment can be described thus: Binding affinity to human partial length DNA-tagged GCN5L2 expressed in bacteria by BROMOscan method.
The target of experiment [17] is SWI/SNF-related matrix-associated actin-dependent regulator of chromatin subfamily A member 2 (Homo sapiens, UniProt P51531). As to the kind of experiment: Binding affinity to human partial length DNA-tagged SMARCA2 expressed in bacteria by BROMOscan method.
The target of experiment [18] is SWI/SNF-related matrix-associated actin-dependent regulator of chromatin subfamily A member 4 (Homo sapiens, UniProt P51532). The experiment can be described thus: Binding affinity to human partial length DNA-tagged SMARCA4 expressed in bacteria by BROMOscan method.
The target of experiment [19] is T3, Bromodomain testis-specific protein. As to the kind of experiment: Selectivity ratio of Kd for human partial length DNA-tagged BRDT isoform b BD1 to Kd for human partial length DNA-tagged BRDT isoform b BD2.
Experiment [20] has as its target Bromodomain-containing protein 4 (Homo sapiens, UniProt O60885, Y390A).
For experiment [21], the target named is Bromodomain-containing protein 4 (Homo sapiens, UniProt O60885, Y97A).
The subject of another experiment is PBMC. The experiment can be described thus: cells. The conditions noted are these: Homo sapiens, read-out: pIC50 (converted).

T2 sequence (Q15059 whole entry): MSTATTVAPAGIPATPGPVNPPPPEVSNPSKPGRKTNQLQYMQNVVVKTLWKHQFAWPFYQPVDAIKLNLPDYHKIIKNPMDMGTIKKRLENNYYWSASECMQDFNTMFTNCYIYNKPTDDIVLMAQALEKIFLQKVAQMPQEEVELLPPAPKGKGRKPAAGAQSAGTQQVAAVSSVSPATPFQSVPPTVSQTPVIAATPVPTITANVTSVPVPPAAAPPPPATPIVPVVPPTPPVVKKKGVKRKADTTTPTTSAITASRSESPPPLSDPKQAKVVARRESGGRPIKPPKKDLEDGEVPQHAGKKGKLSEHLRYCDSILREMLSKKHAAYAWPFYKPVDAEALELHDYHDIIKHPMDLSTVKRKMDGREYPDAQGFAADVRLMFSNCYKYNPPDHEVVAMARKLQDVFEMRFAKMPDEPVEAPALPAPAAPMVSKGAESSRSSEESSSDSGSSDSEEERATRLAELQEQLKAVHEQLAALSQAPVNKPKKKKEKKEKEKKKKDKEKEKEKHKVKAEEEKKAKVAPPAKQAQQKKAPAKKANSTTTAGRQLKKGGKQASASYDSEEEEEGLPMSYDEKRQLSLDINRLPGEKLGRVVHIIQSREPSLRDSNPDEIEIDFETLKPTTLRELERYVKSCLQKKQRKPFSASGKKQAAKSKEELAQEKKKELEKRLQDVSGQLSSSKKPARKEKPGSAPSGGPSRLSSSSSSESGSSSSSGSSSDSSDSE
T1 sequence (P25440 whole entry): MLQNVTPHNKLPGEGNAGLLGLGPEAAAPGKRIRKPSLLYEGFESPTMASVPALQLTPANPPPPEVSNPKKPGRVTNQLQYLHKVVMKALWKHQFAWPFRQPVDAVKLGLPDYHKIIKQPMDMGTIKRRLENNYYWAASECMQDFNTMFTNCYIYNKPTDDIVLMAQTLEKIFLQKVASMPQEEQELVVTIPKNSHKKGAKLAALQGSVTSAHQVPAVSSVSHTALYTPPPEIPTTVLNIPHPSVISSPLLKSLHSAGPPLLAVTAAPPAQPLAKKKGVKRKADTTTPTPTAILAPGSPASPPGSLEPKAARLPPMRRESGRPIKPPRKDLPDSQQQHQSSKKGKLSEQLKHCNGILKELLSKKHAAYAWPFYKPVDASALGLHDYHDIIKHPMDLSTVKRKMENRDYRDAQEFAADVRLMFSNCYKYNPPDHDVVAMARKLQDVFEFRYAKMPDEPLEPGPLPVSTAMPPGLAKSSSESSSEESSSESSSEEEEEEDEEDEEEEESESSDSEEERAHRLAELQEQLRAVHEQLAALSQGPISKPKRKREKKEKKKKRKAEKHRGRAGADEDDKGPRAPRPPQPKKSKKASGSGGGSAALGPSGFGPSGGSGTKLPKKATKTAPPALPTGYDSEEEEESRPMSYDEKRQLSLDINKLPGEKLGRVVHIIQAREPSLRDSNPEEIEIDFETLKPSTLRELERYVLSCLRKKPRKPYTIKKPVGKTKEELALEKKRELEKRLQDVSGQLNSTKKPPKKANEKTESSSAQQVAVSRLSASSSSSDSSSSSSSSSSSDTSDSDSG
Sequence of SWI/SNF-related matrix-associated actin-dependent regulator of chromatin subfamily A member 2 (P51531 whole entry): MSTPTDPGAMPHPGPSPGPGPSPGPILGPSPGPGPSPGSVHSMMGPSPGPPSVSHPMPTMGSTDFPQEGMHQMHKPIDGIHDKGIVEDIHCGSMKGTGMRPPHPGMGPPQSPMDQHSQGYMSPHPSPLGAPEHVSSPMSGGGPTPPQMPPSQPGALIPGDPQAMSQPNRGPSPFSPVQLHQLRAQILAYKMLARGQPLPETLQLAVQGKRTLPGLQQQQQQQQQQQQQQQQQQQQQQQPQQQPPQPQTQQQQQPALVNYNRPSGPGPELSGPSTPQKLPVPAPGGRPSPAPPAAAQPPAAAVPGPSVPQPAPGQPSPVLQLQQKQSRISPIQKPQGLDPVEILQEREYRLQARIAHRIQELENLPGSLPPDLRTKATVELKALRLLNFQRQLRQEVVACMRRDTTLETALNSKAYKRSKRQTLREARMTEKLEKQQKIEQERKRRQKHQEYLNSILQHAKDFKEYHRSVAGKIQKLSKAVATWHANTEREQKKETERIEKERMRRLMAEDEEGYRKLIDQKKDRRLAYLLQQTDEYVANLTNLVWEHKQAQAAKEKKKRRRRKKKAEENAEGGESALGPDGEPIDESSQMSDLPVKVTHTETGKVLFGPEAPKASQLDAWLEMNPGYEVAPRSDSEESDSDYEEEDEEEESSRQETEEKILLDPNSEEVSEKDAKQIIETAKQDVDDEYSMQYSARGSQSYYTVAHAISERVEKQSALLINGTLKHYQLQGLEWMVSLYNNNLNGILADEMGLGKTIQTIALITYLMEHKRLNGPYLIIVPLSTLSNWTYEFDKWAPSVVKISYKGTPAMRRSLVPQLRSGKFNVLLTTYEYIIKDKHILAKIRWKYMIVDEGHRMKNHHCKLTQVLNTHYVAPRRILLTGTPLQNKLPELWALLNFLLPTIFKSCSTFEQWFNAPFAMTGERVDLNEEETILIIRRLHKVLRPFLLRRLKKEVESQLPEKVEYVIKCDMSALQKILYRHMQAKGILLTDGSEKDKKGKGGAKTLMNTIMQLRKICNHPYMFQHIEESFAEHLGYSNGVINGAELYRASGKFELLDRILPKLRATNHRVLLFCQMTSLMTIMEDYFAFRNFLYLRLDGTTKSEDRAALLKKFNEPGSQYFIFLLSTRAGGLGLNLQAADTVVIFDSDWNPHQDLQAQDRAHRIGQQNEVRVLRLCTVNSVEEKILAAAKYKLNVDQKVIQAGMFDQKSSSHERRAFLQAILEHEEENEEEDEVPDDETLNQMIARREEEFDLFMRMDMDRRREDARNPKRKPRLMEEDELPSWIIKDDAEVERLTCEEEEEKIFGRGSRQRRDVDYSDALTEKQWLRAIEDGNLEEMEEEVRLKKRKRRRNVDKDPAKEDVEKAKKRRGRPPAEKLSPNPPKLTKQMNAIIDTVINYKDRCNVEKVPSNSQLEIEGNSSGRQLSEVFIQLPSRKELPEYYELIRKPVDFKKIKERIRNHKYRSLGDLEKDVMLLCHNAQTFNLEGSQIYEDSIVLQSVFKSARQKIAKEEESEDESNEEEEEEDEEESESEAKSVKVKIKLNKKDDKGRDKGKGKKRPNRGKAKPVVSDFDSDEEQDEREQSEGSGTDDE
Sequence of Bromodomain-containing protein 1 (O95696 whole entry): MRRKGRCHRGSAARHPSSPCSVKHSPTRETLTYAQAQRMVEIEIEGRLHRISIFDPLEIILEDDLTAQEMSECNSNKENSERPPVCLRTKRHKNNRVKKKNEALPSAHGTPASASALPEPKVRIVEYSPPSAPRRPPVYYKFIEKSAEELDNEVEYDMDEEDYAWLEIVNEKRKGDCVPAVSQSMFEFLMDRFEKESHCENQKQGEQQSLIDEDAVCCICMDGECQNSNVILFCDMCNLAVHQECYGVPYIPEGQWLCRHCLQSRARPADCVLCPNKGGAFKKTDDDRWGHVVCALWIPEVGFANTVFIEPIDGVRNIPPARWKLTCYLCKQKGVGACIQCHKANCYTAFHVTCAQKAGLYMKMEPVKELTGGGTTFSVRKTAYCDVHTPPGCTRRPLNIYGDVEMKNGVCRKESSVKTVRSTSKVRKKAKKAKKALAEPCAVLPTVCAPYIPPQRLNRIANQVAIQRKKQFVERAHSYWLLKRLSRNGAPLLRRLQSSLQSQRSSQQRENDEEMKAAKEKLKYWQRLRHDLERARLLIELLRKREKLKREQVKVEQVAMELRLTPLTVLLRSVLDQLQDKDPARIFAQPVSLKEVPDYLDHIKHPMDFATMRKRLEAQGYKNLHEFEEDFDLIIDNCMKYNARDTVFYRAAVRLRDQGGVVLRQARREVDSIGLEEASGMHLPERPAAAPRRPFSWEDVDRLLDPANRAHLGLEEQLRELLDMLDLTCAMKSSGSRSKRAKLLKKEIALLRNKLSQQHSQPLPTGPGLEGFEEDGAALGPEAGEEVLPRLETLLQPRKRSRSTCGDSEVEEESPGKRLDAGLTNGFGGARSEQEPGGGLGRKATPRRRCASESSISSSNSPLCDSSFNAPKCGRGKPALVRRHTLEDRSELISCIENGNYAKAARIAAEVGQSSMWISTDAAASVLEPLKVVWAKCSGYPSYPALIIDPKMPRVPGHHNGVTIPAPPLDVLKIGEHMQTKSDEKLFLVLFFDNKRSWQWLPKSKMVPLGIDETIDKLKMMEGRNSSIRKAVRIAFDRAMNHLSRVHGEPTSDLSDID
Sequence of Bromodomain-containing protein 7 (Q9NPI1 whole entry, canonical isoform): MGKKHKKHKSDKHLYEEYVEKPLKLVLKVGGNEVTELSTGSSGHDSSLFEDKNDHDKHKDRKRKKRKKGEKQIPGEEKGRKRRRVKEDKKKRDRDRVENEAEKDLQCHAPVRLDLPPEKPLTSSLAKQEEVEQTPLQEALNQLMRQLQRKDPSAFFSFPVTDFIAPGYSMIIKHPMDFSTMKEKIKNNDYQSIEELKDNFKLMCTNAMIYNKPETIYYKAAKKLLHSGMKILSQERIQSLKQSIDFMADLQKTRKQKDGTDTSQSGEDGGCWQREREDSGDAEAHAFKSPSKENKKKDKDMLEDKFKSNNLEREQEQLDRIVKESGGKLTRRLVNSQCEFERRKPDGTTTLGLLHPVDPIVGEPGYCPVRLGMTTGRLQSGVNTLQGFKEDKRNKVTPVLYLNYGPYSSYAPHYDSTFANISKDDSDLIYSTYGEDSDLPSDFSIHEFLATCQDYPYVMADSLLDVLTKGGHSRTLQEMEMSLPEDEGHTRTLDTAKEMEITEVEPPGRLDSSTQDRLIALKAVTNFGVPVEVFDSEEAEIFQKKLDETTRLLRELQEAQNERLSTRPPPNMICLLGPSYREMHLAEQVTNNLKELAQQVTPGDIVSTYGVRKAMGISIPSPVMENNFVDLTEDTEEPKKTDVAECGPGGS
Description for PBMC: Antiinflammatory activity in human PBMC assessed as inhibition of LPS-induced MCP1 release preincubated for 30 mins followed by LPS challenge measured after 24 hrs by immunoassay

Turning to `CC(=O)N1c2ccc(C3=CCNCC3)cc2N(Cc2ccccc2CO)C[C@@H]1C1CC1`, the IC50 was 2.51 µM in [1]; 0.316 µM in [2]; 1.26 µM in experiment [3]; 1.58 µM in experiment [4]; 20 µM on Peregrin; 3.16 µM in experiment [20]. Besides, the values for the IC50 (in [21]; in the experiment on PBMC) were 0.0631 µM and 0.0398 µM, respectively. Further, the dissociation constant (Kd) was 0.00661 µM in experiment [5]; 0.0195 µM in experiment [6]; 14.5 µM in experiment [7]; 15.1 µM in experiment [8]; more than 30.2 µM in [9]; more than 30.2 µM in experiment [10]. For the same compound, the dissociation constant (Kd) (in experiment [11]; in experiment [12]; in [13]; at CREB-binding protein; in [14]; in experiment [15]) was more than 30.2 µM throughout. Moreover, the Kd in [16], in [17] and in [18] was more than 30.2 µM each time. In addition, the Selectivity ratio in experiment [19] was 91.
